tested on: IRE1-XBP1s (XBP1-RLuc splicing reporter in HEK293 T-REx cells); assay: IRE1-XBP1s activation assay (XBP1-RLuc splicing reporter, HEK293 T-REx cells, luminescence relative to thapsigargin); type: cell-based; conditions: 18 h, compound 10 μM, HEK293 T-REx XBP1-RLuc reporter cells, relative to thapsigargin (Tg) 500 nM, read-out: Activity (IRE1-XBP1s activation, luminescence as % signal relative to thapsigargin, % Tg)
Description: IRE1-XBP1s activation Assay: HEK293 T-REx cells stably expressing the XBP1-RLuc splicing reporter were treated with an IRE1-XBP1s activator provided herein (10 μM) in the presence or absence of the IRE1 active site inhibitor 4μ8C (32 μM) for 18 h. Luminescence was shown as the percentage signal relative to thapsigargin (Tg) (500 nM, 18 h).

Cc1ccc(OCCN(C)C(=O)Cn2cc(NC(=O)[C@@H](CNc3ccc(F)nc3C)C(C)C)cn2)cc1 [Compound 171] and Cc1ccc(OCCN(C)C(=O)Cn2cc(NC(=O)[C@H](CNc3ccc(F)nc3C)C(C)C)cn2)cc1 [Compound 172] fall in the same range of activation at 10 µM: 30 to 50% for the first, 30 to 50% for the second.

Cc1ccc(OCCN(C)C(=O)Cn2cc(NC(=O)CCNc3cc(C)ncc3C)cn2)cc1 [Compound 173] and Cc1ccc(OCCN(C)C(=O)Cn2cc(NC(=O)CCNc3cc(C)ncc3F)cn2)cc1 [Compound 207] cannot be ordered by activation at 10 µM: under 30% for the first, under 30% for the second.

First: Cc1ccc(OCCN(C)C(=O)Cn2cc(NC(=O)CCNc3cccnc3C)cn2)cc1 [Compound 174]
Second: Cc1ccc(OCCN(C)C(=O)Cn2cc(NC(=O)CCNc3cccnc3F)cn2)cc1 [Compound 189]
The activation at 10 µM of the first is higher: 30 to 50% for the first, under 30% for the second.

First: COc1ccnc(NCCC(=O)Nc2cnn(CC(=O)N(C)CCOc3ccc(C)cc3)c2)c1 [Compound 175]
Second: Cc1ccc(OCCN(C)C(=O)Cn2cc(NC(=O)CCNc3cc(N)ccn3)cn2)cc1 [Compound 202]
The activation at 10 µM of the first is lower: 30 to 50% for the first, over 50% for the second.

First: Cc1ccc(OCCN(C)C(=O)Cn2cc(NC(=O)CCNc3ccc(C#N)nc3C)cn2)cc1 [Compound 176]
Second: Cc1ccc(OCCN(C)C(=O)Cn2cc(NC(=O)CCNc3ccc(F)nc3C)cn2)cc1 [Compound 196]
The activation at 10 µM of the first is lower: under 30% for the first, over 50% for the second.

First: Cc1ccc(OCCN(C)C(=O)Cn2cc(NC(=O)CCNc3cnc(C#N)c(F)c3)cn2)cc1 [Compound 177]
Second: Cc1ccc(OCCN(C)C(=O)Cn2cc(NC(=O)CCNc3cnc(F)c(Cl)c3)cn2)cc1 [Compound 184]
The activation at 10 µM of the first is lower: 30 to 50% for the first, over 50% for the second.

Compared with Cc1ccc(OCCN(C)C(=O)Cn2cc(NC(=O)CCNc3ccc(Cl)nc3)cn2)cc1 [Compound 178], Cc1ccc(OCCN(C)C(=O)Cn2cc(NC(=O)CCNc3ccncc3Cl)cn2)cc1 [Compound 182] is higher in activation at 10 µM: 30 to 50% for the first, over 50% for the second.

Compared with Cc1ccc(OCCN(C)C(=O)Cn2cc(NC(=O)CCNc3cnc(F)cc3C)cn2)cc1 [Compound 179], Cc1ccc(OCCN(C)C(=O)Cn2cc(NC(=O)CCNc3cc(C)cnc3F)cn2)cc1 [Compound 194] is lower in activation at 10 µM: over 50% for the first, under 30% for the second.

First: Cc1ccc(OCCN(C)C(=O)Cn2cc(NC(=O)CCNc3cncc(C)c3)cn2)cc1 [Compound 180]
Second: Cc1ccc(OCCN(C)C(=O)Cn2cc(NC(=O)CCNc3cnc(C)nc3)cn2)cc1 [Compound 212]
The activation at 10 µM of the first is higher: 30 to 50% for the first, under 30% for the second.

Cc1ccc(OCCN(C)C(=O)Cn2cc(NC(=O)CCNc3ccc(C)nc3F)cn2)cc1 [Compound 181] and Cc1ccc(OCCN(C)C(=O)Cn2cc(NC(=O)CCNc3ccnc(C)c3F)cn2)cc1 [Compound 209] cannot be ordered by activation at 10 µM: under 30% for the first, under 30% for the second.

Compared with COc1ncc(Cl)cc1NCCC(=O)Nc1cnn(CC(=O)N(C)CCOc2ccc(C)cc2)c1 [Compound 183], COc1ncc(C(F)(F)F)cc1NCCC(=O)Nc1cnn(CC(=O)N(C)CCOc2ccc(C)cc2)c1 [Compound 187] is higher in activation at 10 µM: under 30% for the first, 30 to 50% for the second.

First: Cc1ccc(OCCN(C)C(=O)Cn2cc(NC(=O)CCNc3cncc(C(F)(F)F)n3)cn2)cc1 [Compound 185]
Second: Cc1ccc(OCCN(C)C(=O)Cn2cc(NC(=O)CCNc3cccnc3C(F)(F)F)cn2)cc1 [Compound 186]
The activation at 10 µM of the first is lower: under 30% for the first, over 50% for the second.

First: COc1cccc(NCCC(=O)Nc2cnn(CC(=O)N(C)CCOc3ccc(C)cc3)c2)n1 [Compound 188]
Second: COc1ccc(NCCC(=O)Nc2cnn(CC(=O)N(C)CCOc3ccc(C)cc3)c2)c(C)n1 [Compound 197]
The activation at 10 µM of the first is lower: under 30% for the first, 30 to 50% for the second.

Compared with Cc1ccc(OCCN(C)C(=O)Cn2cc(NC(=O)CCNc3ccnc(F)c3Cl)cn2)cc1 [Compound 190], Cc1ccc(OCCN(C)C(=O)Cn2cc(NC(=O)CCNc3ccncc3F)cn2)cc1 [Compound 192] is higher in activation at 10 µM: under 30% for the first, over 50% for the second.

CCOc1cc(NCCC(=O)Nc2cnn(CC(=O)N(C)CCOc3ccc(C)cc3)c2)ccn1 [Compound 191] and Cc1ccc(OCCN(C)C(=O)Cn2cc(NC(=O)CCNc3ccnc4ncnn34)cn2)cc1 [Compound 200] cannot be ordered by activation at 10 µM: under 30% for the first, under 30% for the second.

First: Cc1ccc(OCCN(C)C(=O)Cn2cc(NC(=O)CCNc3ncc(F)cn3)cn2)cc1 [Compound 193]
Second: CNC(=O)c1cnc(NCCC(=O)Nc2cnn(CC(=O)N(C)CCOc3ccc(C)cc3)c2)nc1 [Compound 211]
The activation at 10 µM of the first is higher: 30 to 50% for the first, under 30% for the second.

Going from Cc1ccc(OCCN(C)C(=O)Cn2cc(NC(=O)CCNc3ncc(C)cc3C)cn2)cc1 [Compound 195] to Cc1ccc(OCCN(C)C(=O)Cn2cc(NC(=O)CCNc3ncc(F)cc3C)cn2)cc1 [Compound 206], the activation at 10 µM rises from under 30% to over 50%.

Going from COc1cnccc1NCCC(=O)Nc1cnn(CC(=O)N(C)CCOc2ccc(C)cc2)c1 [Compound 198] to CC(=O)c1cncc(F)c1NCCC(=O)Nc1cnn(CC(=O)N(C)CCOc2ccc(C)cc2)c1 [Compound 232], the activation at 10 µM rises from under 30% to over 50%.

Compared with Cc1ccc(OCCN(C)C(=O)Cn2cc(NC(=O)OC3CCCN(c4ccnc(F)n4)C3)cn2)cc1 (centres unmarked) [Compound 201], Cc1ccc(OCCN(C)C(=O)Cn2cc(NC(=O)[C@@H](C)CNc3ccnc(F)n3)cn2)cc1 [Compound 224] is higher in activation at 10 µM: under 30% for the first, over 50% for the second.

Cc1ncccc1NCCC(=O)Nc1cnn(CC(=O)N(C)CCOc2ccc(C(F)(F)F)cc2)c1 [Compound 204] and Cc1ccc(OCCN(C)C(=O)Cn2cc(NC(=O)CCNc3ccnc4nccn34)cn2)cc1 [Compound 227] cannot be ordered by activation at 10 µM: under 30% for the first, under 30% for the second.

Cc1ccc(OCCN(C)C(=O)Cn2cc(NC(=O)CCOc3ccc(N)cn3)cn2)cc1 [Compound 205] and Cc1ccc(OCCN(C)C(=O)Cn2cc(NC(=O)CCOc3cccnc3N)cn2)cc1 [Compound 233] cannot be ordered by activation at 10 µM: over 50% for the first, over 50% for the second.

Cc1ccc(OCCN(C)C(=O)Cn2cc(NC(=O)CCNc3nc(C)ncc3C(C)C)cn2)cc1 [Compound 210] and Cc1ccc(OCCN(C)C(=O)Cn2cc(NC(=O)CCNc3c(F)cncc3C(C)C)cn2)cc1 [Compound 231] cannot be ordered by activation at 10 µM: over 50% for the first, over 50% for the second.

CN(CCOc1ccc(C(F)(F)F)cn1)C(=O)Cn1cc(NC(=O)CCNc2c(F)cncc2Cl)cn1 [Compound 213] and Cc1ccc(OCCN(C)C(=O)Cn2cc(NC(=O)CCNc3c(F)cncc3C=O)cn2)cc1 [Compound 230, 3-((3-fluoro-5-formylpyridin-4-yl)amino)-N-(1-(2-(methyl(2-(p-tolyloxy)ethyl)amino)-2-oxoethyl)-1H-pyrazol-4-yl)propanamide] cannot be ordered by activation at 10 µM: over 50% for the first, over 50% for the second.

Cc1ccc(OCCN(C)C(=O)Cn2cc(NC(=O)CCNc3c(F)cnc(C)c3C3CC3)cn2)cc1 [Compound 214] and Cc1ccc(OCCN(C)C(=O)Cn2cc(NC(=O)CCNc3c(F)cnc(C)c3C)cn2)cc1 [Compound 215] cannot be ordered by activation at 10 µM: over 50% for the first, over 50% for the second.

CNc1ccnc(OCCC(=O)Nc2cnn(CC(=O)N(C)CCOc3ccc(C)cc3)c2)n1 [Compound 216] and Cc1ccc(OCCN(C)C(=O)Cn2cc(NC(=O)CC(C)(C)Nc3ccnc(F)n3)cn2)cc1 [Compound 217, 3-((2-fluoropyrimidin-4-yl)amino)-3-methyl-N-(1-(2-(methyl(2-(p-tolyloxy)ethyl)amino)-2-oxoethyl)-1H-pyrazol-4-yl)butanamide] cannot be ordered by activation at 10 µM: under 30% for the first, under 30% for the second.

Cc1ccc(OCCN(C)C(=O)Cn2cc(NC(=O)CC(C)(C)Nc3nccc(F)n3)cn2)cc1 [Compound 218, 3-((4-fluoropyrimidin-2-yl)amino)-3-methyl-N-(1-(2-(methyl(2-(p-tolyloxy)ethyl)amino)-2-oxoethyl)-1H-pyrazol-4-yl)butanamide] and Cc1ccc(OCCN(C)C(=O)Cn2cc(NC(=O)[C@@H](C)CNc3nccc(F)n3)cn2)cc1 [Compound 223] cannot be ordered by activation at 10 µM: over 50% for the first, over 50% for the second.

Cc1ccc(OCCN(C)C(=O)Cn2cc(NC(=O)C(CNc3ccc(F)nc3C)C3CCCCC3)cn2)cc1 (centres unmarked) [Compound 219] and Cc1ccc(OCCN(C)C(=O)Cn2cc(NC(=O)[C@@H](C)CNc3ccc(F)nc3C)cn2)cc1 [Compound 220] fall in the same range of activation at 10 µM: 30 to 50% for the first, 30 to 50% for the second.

First: Cc1ccc(OCCN(C)C(=O)Cn2cc(NC(=O)C(C)(C)CNc3ccc(F)nc3C)cn2)cc1 [Compound 221]
Second: Cc1ccc(OCCN(C)C(=O)Cn2cc(NC(=O)[C@H](C)CNc3ccnc(F)n3)cn2)cc1 [Compound 225]
The activation at 10 µM of the first is lower: under 30% for the first, 30 to 50% for the second.

Compared with [2H]C([2H])([2H])c1ccc(OCCN(C)C(=O)Cn2cc(NC(=O)CCNc3ccnc(F)n3)cn2)cc1 [Compound 222], Cc1ccc(OCCN(C)C(=O)Cn2cc(NC(=O)CCNc3cc(Cl)nc4nccn34)cn2)cc1 [Compound 226] is lower in activation at 10 µM: over 50% for the first, under 30% for the second.

Going from C#CCCC1(CCC(=O)Nc2ccc(OCCC(=O)Nc3cnn(CC(=O)N(C)CCOc4ccc(C)cc4)c3)nc2)N=N1 [Compound 234] to C#CCCC1(CCC(=O)Nc2cncc(OCCC(=O)Nc3cnn(CC(=O)N(C)CCOc4ccc(C)cc4)c3)c2)N=N1 [Compound 236], the activation at 10 µM falls from over 50% to under 30%.

Cc1ccc(OCCN(C)C(=O)Cn2cc(NC(=O)CCOc3cncc(N)c3)cn2)cc1 [Compound 235] and Cc1ccc(OCCN(C)C(=O)Cn2cc(NC(=O)/C=C/Oc3cccnc3N)cn2)cc1 [Compound 237] cannot be ordered by activation at 10 µM: under 30% for the first, under 30% for the second.

Cc1nc(F)ccc1NCCC(=O)Nc1cnn(CC(=O)N(C)CCOc2cnn(C)c2)c1 [Compound 238, 3-[(6-fluoro-2-methyl-3-pyridyl)amino]-N-[1-[2-[methyl-[2-(1-methylpyrazol-4-yl)oxyethyl]amino]-2-oxo-ethyl]pyrazol-4-yl]propanamide] and Cc1cnc(OCCN(C)C(=O)Cn2cc(NC(=O)CCNc3ccc(F)nc3C)cn2)cn1 [Compound 240] cannot be ordered by activation at 10 µM: under 30% for the first, under 30% for the second.

For Cc1ccc2nc(OCCN(C)C(=O)Cn3cc(NC(=O)CCNc4ccc(F)nc4C)cn3)sc2c1 [Compound 239], the activation at 10 µM was under 30%.
